Results on eight molecules are retold here after PubChem BioAssay AID2060505 (Molecular Pharmacology Branch, DTP, NCI, 2025).

Where “and” joins values, the source holds several entries; their conditions need not be identical. Equal values may be shown once. Bounds are passed on as bounds.

This test relates to 633275-114-R-J1-PDC complex spheroids, viability. Briefly: Anticancer human tumor 633275-114-R-J1-PDC patient-derived endometrial adenocarcinoma cell line growth inhibition [GQUAD]. Conditions: for viability, T/C: stronger effect = lower value. From the text: DNA G-quadruplex Stabilizer Agents in Combinations in Complex Spheroids
A high-throughput screen of multi-cell type tumor spheroids was designed to identify active combinations of DNA G-quadruplex stabilizer agents and targeted small molecules. Complex spheroids include a stromal component modeled by human endothelial cells (HUVEC) and fibroblasts modeled by human mesenchymal stem cells (MSCs). The concentration ranges selected for each drug and investigational agent were based upon clinically achievable concentrations if the clinical Cmax of the agent was known.
Compounds. The drugs and investigational agents: pidnarulex (CX-5461; NSC782164), APTO-253 (NSC789042), BRACO-19 (NSC847499), peposertib (NSC802822), ceralasertib (NSC780249), elimusertib (NSC800525), camonsertib (NSC841442), AZD-1390 (NSC803789), olaparib (NSC753686), talazoparib (NSC767125), ART-558 (NSC835418), sotorasib (NSC818433), MRTX-1133 (NSC836407), SN-38 (NSC673596), topotecan (NSC609699), etoposide (NSC141540), doxorubicin (NSC123127), gemcitabine (NSC613327), 5-fluorouracil (NSC19893), paclitaxel (NSC125973), vemurafenib (NSC761431), panobinostat (NSC761190), R-306465 (JNJ-16241199; NSC773264), adavosertib (NSC754352), TP-3654 (NSC805149), carboplatin (NSC241240), KSQ-4279 (NSC840948), and staurosporine (NSC755774) were obtained from the National Cancer Institute (NCI) Developmental Therapeutics Program Chemical Repository (34). The FDA-approved anticancer drug set is available from the NCI Developmental Therapeutics Program. […] The stock solutions were prepared in dimethyl sulfoxide (DMSO, Sigma-Aldrich, St. Louis, MO, cat. D2650) at 800-fold the tested concentration and stored at -70 degrees C prior to their use. All drugs and investigational agents were tested over a range starting from a high concentration at or near the clinical Cmax and decreasing in half-log increments. If the clinical Cmax for an agent had not been determined, the highest concentration tested was 10 microM.
2.3 Cell Culture. All cells were maintained in an incubator at 37 degrees C and 5% CO2 with 95% humidity. The PDC lines were cultured according to standard operating procedures established by the NCI PDMR. All PDCs were thawed and cultured in Matrigel-coated flasks prepared with a working solution of 1X Ham's F-12 nutrient mix, without supplementation (Invitrogen, cat. 11765054), 100 U/mL penicillin-streptomycin (Invitrogen, cat. 15140122), and 2.5% Matrigel (Corning Inc., cat. 354248) for the first three passages. The 857933-349-R-J2-PDC line was cultured in 6C/Colon 1B media, which includes advanced DMEM/F-12 (Thermo Fisher Scientific, cat. 12634028), 10 mM HEPES (Thermo Fisher Scientific, cat. 15630080), 1X GlutaMAX supplement (Thermo Fisher Scientific, cat. 35050061), 0.1 mg/mL primocin (InvivoGen, cat. ant-pm-2), 10% defined fetal bovine serum, heat inactivated (HyClone Laboratories Inc., cat. SH30070.03HI), 50% L-WRN conditioned media (ATCC, cat. CRL-3276), 1.25 mM N-Acetyl-L-cysteine (Sigma-Aldrich, cat. A9165), 10 mM nicotinamide (Sigma-Aldrich, cat. N0636), 1X B-27 supplement (Thermo Fisher Scientific, cat. 17504044), 1X N-2 supplement (Thermo Fisher Scientific, cat. 17502048), 10 microM Y-27632 dihydrochloride (Tocris Bioscience, cat. 1254), and 50 ng/mL human EGF recombinant protein (Thermo Fisher Scientific, cat. PHG0311). The 485176-168-R4-J1-PDC line was cultured in Panc media, which includes all 6C/Colon 1B media components plus 100 ng/mL human FGF-10 (Thermo Fisher Scientific, cat. 100-26), 500 nM SB-431542 (Selleckchem, cat. S1067), and gastrin (Tocris, cat. 3006).
[…]
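Further: spheroids exposed to the agents for seven days.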
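Wherever viability, T/C is given: percent of DMSO vehicle control viability which is 100%.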

As for `CCCS(=O)(=O)Nc1ccc(F)c(C(=O)c2c[nH]c3ncc(-c4ccc(Cl)cc4)cc23)c1F` + Cc1cnc(CNC(=O)c2c(=O)c3ccc(N4CCCN(C)CC4)nc3n3c2sc2ccccc23)cn1, the half-maximal inhibitory concentration (IC50) (usually the midpoint of a concentration-inhibition curve) was 5340 nM (curve of first compound, second compound 0.0316 µM); 3830 nM (curve of first compound, second compound 0.1 µM); 1460 nM (curve of first compound, second compound 0.316 µM); under 31.6 nM (curve of first compound, second compound 1 µM); under 31.6 nM (curve of first compound, second compound 3.16 µM); under 31.6 nM (curve of first compound, second compound 10 µM). The viability, T/C (usually the result in the treated group divided by that in the control group, in per cent) was 68.7% (second compound 0.0316 µM, first compound 0.0316 µM); 67.6% (second compound 0.0316 µM, first compound 0.1 µM); 72.9% (second compound 0.0316 µM, first compound 0.316 µM); 77% (second compound 0.0316 µM, first compound 1 µM); 69.4% (second compound 0.0316 µM, first compound 3.16 µM); 26.3% (second compound 0.0316 µM, first compound 10 µM). The viability, T/C runs as follows: (second compound 0.1 µM, first compound 0.0316 µM) 55.9%; (second compound 0.1 µM, first compound 0.1 µM) 53.1%; (second compound 0.1 µM, first compound 0.316 µM) 56.1%; (second compound 0.1 µM, first compound 1 µM) 58.1%; (second compound 0.1 µM, first compound 3.16 µM) 56.4%; (second compound 0.1 µM, first compound 10 µM) 20.7%. Further, the viability, T/C (second compound 0.316 µM, first compound 0.0316 µM) is 49%; the viability, T/C (second compound 0.316 µM, first compound 0.1 µM) is 53.3%; the viability, T/C (second compound 0.316 µM, first compound 0.316 µM) was 50.8%; the viability, T/C (second compound 0.316 µM, first compound 1 µM) was 54%; the viability, T/C (second compound 0.316 µM, first compound 3.16 µM) is 46.8%; the viability, T/C (second compound 0.316 µM, first compound 10 µM) was 19.3%. Also, the viability, T/C was 40.7% (second compound 1 µM, first compound 0.0316 µM); 43.6% (second compound 1 µM, first compound 0.1 µM); 47.7% (second compound 1 µM, first compound 0.316 µM); 47.3% (second compound 1 µM, first compound 1 µM); 43.3% (second compound 1 µM, first compound 3.16 µM); 13.6% (second compound 1 µM, first compound 10 µM). Moreover, the viability, T/C is 37.2% (second compound 3.16 µM, first compound 0.0316 µM); 37.1% (second compound 3.16 µM, first compound 0.1 µM); 36.7% (second compound 3.16 µM, first compound 0.316 µM); 40.3% (second compound 3.16 µM, first compound 1 µM); 40.6% (second compound 3.16 µM, first compound 3.16 µM); 7.26% (second compound 3.16 µM, first compound 10 µM). Moreover, the viability, T/C (second compound 10 µM, first compound 0.0316 µM) is 30.6%; the viability, T/C (second compound 10 µM, first compound 0.1 µM) is 33.1%; the viability, T/C (second compound 10 µM, first compound 0.316 µM) is 34%; the viability, T/C (second compound 10 µM, first compound 1 µM) was 35.9%; the viability, T/C (second compound 10 µM, first compound 3.16 µM) is 27.8%; the viability, T/C (second compound 10 µM, first compound 10 µM) is 0.18%.

As for `O=c1[nH]cc(F)c(=O)[nH]1`, the viability, T/C (compound 0.0316 µM) is 103% (2×) and 98.4%; the viability, T/C (compound 0.1 µM) is 90.1% and 99.8% and 94.7%; the viability, T/C (compound 0.316 µM) was 91.3% and 105% and 101%; the viability, T/C (compound 1 µM) was 95.9% and 91.8% and 94.2%; the viability, T/C (compound 3.16 µM) was 89.3% and 98.9% and 91.8%; the viability, T/C (compound 10 µM) was 77.6% and 72% and 67.4%. Also, where the note is “curve of compound”, the IC50 was over 10000 nM.

In the case of `COc1cc(C2c3cc4c(cc3C(OC3OC5COC(C)OC5C(O)C3O)C3COC(=O)C23)OCO4)cc(OC)c1O` (stereo unspecified), the viability, T/C is 90.9% and 82.6% and 84.5% (compound 0.0316 µM); 71.1% and 64.9% and 66.1% (compound 0.1 µM); 50.1% and 51.4% and 46.9% (compound 0.316 µM); 44.4% and 42.1% and 49.9% (compound 1 µM); 38.2% (2×) and 36.1% (compound 3.16 µM); 32.7% and 30.8% and 28.3% (compound 10 µM). Besides, the IC50 (curve of compound) is 442 nM and 384 nM and 466 nM.

For the molecule `CN(C)c1ccc(Nc2c3ccc(NC(=O)CCN4CCCC4)cc3nc3cc(NC(=O)CCN4CCCC4)ccc23)cc1`, the viability, T/C is 102% [middle of 12 runs] (compound 0.0316 µM); 101% [middle of 12 runs] (compound 0.1 µM); 103% [middle of 12 runs] (compound 0.316 µM); 94.3% [middle of 12 runs] (compound 1 µM); 81.8% [middle of 12 runs] (compound 3.16 µM); 36.6% [middle of 12 runs] (compound 10 µM). Further, the half-maximal inhibitory concentration (IC50) (compound alone, run of 03/26/2024) is 7.24 µM [middle of 12 runs].

Consider `C#Cc1c(F)ccc2cc(O)cc(-c3ncc4c(N5CC6CCC(C5)N6)nc(OCC56CCCN5CC(F)C6)nc4c3F)c12` (stereo unspecified), for which the viability, T/C is 113% and 109% and 110% (compound 0.0316 µM); 97.5% and 81% and 88.5% (compound 0.1 µM); 89.9% and 97.2% and 102% (compound 0.316 µM); 91.7% and 88.4% and 80.4% (compound 1 µM); 89.1% and 69.1% and 78.6% (compound 3.16 µM); 72.7% and 64.9% and 67.2% (compound 10 µM). For the same molecule, the IC50 (curve of compound) was over 10000 nM.

Take `CC(=O)O[C@H]1C(=O)[C@@]2(C)[C@H]([C@H](OC(=O)c3ccccc3)[C@]3(O)C[C@H](OC(=O)[C@H](O)[C@@H](NC(=O)c4ccccc4)c4ccccc4)C(C)=C1C3(C)C)[C@]1(OC(C)=O)CO[C@@H]1C[C@@H]2O`: the viability, T/C is 47.5% and 49.6% and 46.9% (compound 0.0316 µM); 22.7% and 22.6% and 27.5% (compound 0.1 µM); 18.4% and 21% and 21.7% (compound 0.316 µM); 20.4% and 20% and 23.4% (compound 1 µM); 18.8% and 21.8% and 21.4% (compound 3.16 µM); 19.4% and 21.5% and 20.4% (compound 10 µM). In addition, the IC50 (curve of compound) is under 31.6 nM.

Take `Nc1ccn(C2OC(CO)C(O)C2(F)F)c(=O)n1` (stereo unspecified): the viability, T/C was 30.6% and 26.5% and 26.6% (compound 0.0316 µM); 24.7% and 22.3% and 23.2% (compound 0.1 µM); 28.7% and 23.9% and 24.1% (compound 0.316 µM); 25.4% and 23.2% and 21.9% (compound 1 µM); 27.3% and 23.6% and 20.7% (compound 3.16 µM); 21.7% and 17.1% and 18.9% (compound 10 µM). Further, the half-inhibitory concentration (IC50) (curve of compound) was under 31.6 nM.

For `Cc1cccc(N(C)C(=O)C2C(O)CCN2c2nc(C)cc(C(F)(F)F)c2C#N)c1` (stereo unspecified), the viability, T/C runs as follows: (compound 0.0316 µM) 104% and 106% and 102%; (compound 0.1 µM) 87.3% and 93.7% and 107%; (compound 0.316 µM) 96.6% and 105% and 93%; (compound 1 µM) 99.8% and 93.9% and 87.2%; (compound 3.16 µM) 104% and 103% and 98.8%; (compound 10 µM) 96.2% and 95.4% and 92.5%. Besides, the IC50 (curve of compound) is over 10000 nM.
